According to patent publication US20250082624A1, “METHODS OF TREATING COGNITIVE IMPAIRMENT” (NeuroTherapia, Inc., priority 2023, published 2025):
“And” between values parts separate entries of the source, which are not always exact repeats. Identical values can stand only once. “Also recorded” adds a separate entry of the source.

Assay: Phase 1b MAD plasma pharmacokinetics, non-compartmental analysis
Assay type: in vivo, human
Text: Methods: All study procedures were approved by the IRB, and informed consent was obtained. Three cohorts of volunteers 45-80 years of age with well-controlled comorbidities (NOAD) and one cohort of AD patients diagnosed with cognitive impairment consistent with prodromal AD per International Working Group criteria or mild AD per National Institute on Aging—Alzheimer's Association criteria (n=6 active, 2 placebo per cohort) were enrolled. Participants were admitted to the study site for the duration of the dosing and returned 7-12 days after the last dose for a safety visit. Participants received NTRX-07 (10, 30, or 90 mg) or a placebo in a double-blinded randomization orally once daily for seven days. Subjects were assessed for changes in vital signs, including maneuvers to induce lightheadedness, electrocardiograms, 24-hour electroencephalograms (EEG), and safety laboratory studies. The second cohort returned and received a single repeat dose after a standard high-fat meal. The AD cohort also underwent cognitive testing and had blood samples for biomarkers drawn. Subjects had PK sampling done after the first and final dose of the study drug. An independent safety review committee conducted a blinded safety review of adverse events and plasma levels between each cohort.
All subjects had PK sampling done after the first and final dose of the study drug.
Raw bioanalytical data were received from Nuvisan following analysis of plasma samples from each of four cohorts. PK parameters were calculated by noncompartmental analysis using standard equations. Specifically, area under the plasma concentration versus time curve (AUC) was calculated using the trapezoid rule. Maximal plasma concentration (Cmax) and time of maximal plasma concentration (Tmax) were taken directly from the data. Clearance divided by bioavailability (Cl/F) was calculated as the dose divided by the AUC. Apparent volume of distribution over bioavailability (Vd/F) was calculated as dose divided by Cmax.
With oral administration of the dose every 24 hours for 7 days, blood samples were taken over a 24-hour interval on Days 1 and 7 and before and after dosing on Day 3.
Raw bioanalytical data were received from Nuvisan on Oct. 27, 2022. […] Specifically, area under the plasma concentration versus time curve (AUC) was calculated using the trapezoid rule. Maximal plasma concentration (Cmax) and time of maximal plasma concentration (Tmax) were taken directly from the data. Clearance divided by bioavailability (Cl/F) was calculated as the dose divided by the AUC. Apparent volume of distribution over bioavailability (Vd/F) was calculated as dose divided by Cmax.
Raw bioanalytical data were received from Nuvisan on Nov. 24, 2022. […] Specifically, area under the plasma concentration versus time curve (AUC) was calculated using the trapezoid rule. Maximal plasma concentration (Cmax) and time of maximal plasma concentration (Tmax) were taken directly from the data. Clearance divided by bioavailability (Cl/F) was calculated as the dose divided by the AUC. Apparent volume of distribution over bioavailability (Vd/F) was calculated as dose divided by Cmax.
Raw bioanalytical data were received from Nuvisan on Dec. 19, 2022. […] Specifically, area under the plasma concentration versus time curve (AUC) was calculated using the trapezoid rule. Maximal plasma concentration (Cmax) and time of maximal plasma concentration (Tmax) were taken directly from the data. Clearance divided by bioavailability (Cl/F) was calculated as the dose divided by the AUC. Apparent volume of distribution over bioavailability (Vd/F) was calculated as dose divided by Cmax.
Raw bioanalytical data were received from Nuvisan on Jun. 30, 2023. […] Specifically, area under the plasma concentration versus time curve (AUC) was calculated using the trapezoid rule. Maximal plasma concentration (Cmax) and time of maximal plasma concentration (Tmax) were taken directly from the data. […]

[1] = Table 9: Cohort A, 10 mg QD oral, Day 1, individual subjects
[2] = Table 10: Cohort A, 10 mg QD oral, Day 7, individual subjects
[3] = Table 11: Cohort B, 30 mg QD oral, Day 1, individual subjects
[4] = Table 12: Cohort B, 30 mg QD oral, Day 7, individual subjects
[5] = Table 13: Cohort B Fed, 30 mg oral, fed state, individual subjects
[6] = Table 14: Cohort C, 90 mg QD oral, Day 1, individual subjects
[7] = Table 15: Cohort C, 90 mg QD oral, Day 7, individual subjects
[8] = Table 16: Cohort D (AD), 90 mg QD oral, Day 1, individual subjects
[9] = Table 17: Cohort D (AD), 90 mg QD oral, Day 7, individual subjects

In the case of `CC1(Cc2ccccc2)COc2cc(C(=O)N3CCCCC3)ccc21` (centres unmarked) [NTRX-07, 3-benzyl-3-methyl-2,3-dihydrobenzofuran-6-carboxylic acid-piperidine amide], the “Food effect on Cmax” value (30 mg after standard high-fat meal vs fasted) is reported as “decreased Cmax; also recorded: muting of Cmax”, the “Plasma levels vs target / predicted efficacious levels” value (90 mg dose, allometric scaling of preclinical data) is reported as “within the target ranges; also recorded: Blood levels equivalent to those that were efficacious in animal models of AD; also recorded: consistent with levels predicted to be efficacious” and the “Dose linearity of PK” value (10-90 mg QD) is reported as “PK is linear across this dose range”. For the same compound, the “Dose linearity of PK (interim analyses)” value (40, 120 and 360 mg SDD QD doses) was “Good dose linearity; also recorded: linear; also recorded: Dose linearity was observed”, the “Accumulation over seven days of dosing” value (Cohort A, 40 mg SDD QD) was “little or no accumulation” and the “Accumulation over seven days of dosing” value (Cohort B, 120 mg SDD QD) was “little or no accumulation”. The “Accumulation over seven days of dosing” value (Cohort C, 360 mg SDD QD) was “little or no accumulation”, the “Average of Cl/F” value (Cohort D AD patients, 90 mg QD oral, Day 1, mean ± SD) was 62 ± 19 L/h and the AUClast [1] was 0.0316 µg·h/mL and 0.0662 µg·h/mL and 0.1314 µg·h/mL and 0.0334 µg·h/mL and 0.1269 µg·h/mL and 0.0831 µg·h/mL. The Cl/F [1] was 316.3 L/h and 151.1 L/h and 76.1 L/h and 299.0 L/h and 78.8 L/h and 120.4 L/h, the Cmax [1] was 0.0242 µg/mL and 0.045 µg/mL and 0.0367 µg/mL and 0.0182 µg/mL and 0.0526 µg/mL and 0.037 µg/mL and the Tmax [1] was 1.0 h. The Cl/F (Table 9: Cohort A, 10 mg QD oral, Day 1, mean ± S.D.) was 174 ± 108 L/h, the AUC24 h [2] was 0.0478 µg·h/mL and 0.0884 µg·h/mL and 0.2238 µg·h/mL and 0.0395 µg·h/mL and 0.0804 µg·h/mL and 0.0629 µg·h/mL and the Cl/F [2] was 209.3 L/h and 113.2 L/h and 44.7 L/h and 253.4 L/h and 124.4 L/h and 158.9 L/h. The Cmax [2] was 0.0296 µg/mL and 0.0394 µg/mL and 0.0636 µg/mL and 0.0196 µg/mL and 0.0467 µg/mL and 0.0271 µg/mL, the Tmax [2] was 1.0 h and the Cl/F (Table 10: Cohort A, 10 mg QD oral, Day 7, mean ± S.D.) was 151 ± 74 L/h. For the same compound, the AUClast [3] was 0.1419 µg·h/mL and 0.4624 µg·h/mL and 0.7161 µg·h/mL and 0.3693 µg·h/mL and 0.2226 µg·h/mL and 0.0925 µg·h/mL and 0.2938 µg·h/mL, the Cl/F [3] was 211.4 L/h and 64.9 L/h and 41.9 L/h and 81.2 L/h and 134.7 L/h and 324.4 L/h and 102.1 L/h and the Cmax [3] was 0.0608 µg/mL and 0.0939 µg/mL and 0.209 µg/mL and 0.127 µg/mL and 0.153 µg/mL and 0.0479 µg/mL and 0.0706 µg/mL. The Tmax [3] was 1.0 h (3×) and 2.0 h, the Cl/F (Table 11: Cohort B, 30 mg QD oral, Day 1, mean ± S.D.) was 137 ± 99 L/h and the AUClast [4] was 0.113 µg·h/mL and 0.581 µg·h/mL and 0.286 µg·h/mL and 0.212 µg·h/mL and 0.061 µg·h/mL and 0.166 µg·h/mL. The Cl/F [4] was 265.0 L/h and 51.7 L/h and 105.0 L/h and 141.2 L/h and 492.7 L/h and 181.3 L/h, the Cmax [4] was 0.0929 µg/mL and 0.236 µg/mL and 0.127 µg/mL and 0.186 µg/mL and 0.0424 µg/mL and 0.0379 µg/mL and the Tmax [4] was 1 h. The Cl/F (Table 12: Cohort B, 30 mg QD oral, Day 7, mean ± S.D.) was 206 ± 176 L/h, the AUClast [5] was 0.421 µg·h/mL and 0.944 µg·h/mL and 0.471 µg·h/mL and 0.347 µg·h/mL and 0.11 µg·h/mL and 0.312 µg·h/mL and 0.124 µg·h/mL and 0.364 µg·h/mL and the Cl/F [5] was 71.2 L/h and 31.8 L/h and 63.7 L/h and 86.4 L/h and 272.1 L/h and 96.3 L/h and 242.3 L/h and 82.5 L/h. For the same compound, the Cmax [5] was 0.042 µg/mL and 0.0955 µg/mL and 0.0396 µg/mL and 0.0323 µg/mL and 0.0668 µg/mL and 0.0203 µg/mL and 0.0584 µg/mL, the Tmax [5] was 1 h (2×) and 3 h (2×) and 1.5 h (3×) and 6 h and the Cl/F (Table 13: Cohort B Fed, 30 mg oral, fed state, mean ± S.D.) was 123 ± 94 L/h. The AUC24 h [6] was 1.629 µg·h/mL and 0.857 µg·h/mL and 0.925 µg·h/mL and 0.657 µg·h/mL and 1.73 µg·h/mL and 1.807 µg·h/mL, the Cl/F [6] was 55.2 L/h and 105.1 L/h and 97.3 L/h and 137.0 L/h and 52.0 L/h and 49.8 L/h and the Cmax [6] was 0.449 µg/mL and 0.35 µg/mL and 0.337 µg/mL and 0.0924 µg/mL and 0.713 µg/mL and 0.456 µg/mL. The Tmax [6] was 1.5 h (3×) and 8 h and 1 h, the Cl/F (Table 14: Cohort C, 90 mg QD oral, Day 1, mean ± S.D.) was 83 ± 36 L/h and the AUC24 h [7] was 0.783 µg·h/mL and 0.604 µg·h/mL and 0.318 µg·h/mL and 0.516 µg·h/mL and 0.876 µg·h/mL and 1.349 µg·h/mL. For the same compound, the Cl/F [7] was 115.0 L/h and 149.1 L/h and 283.5 L/h and 174.4 L/h and 102.7 L/h and 66.7 L/h, the Cmax [7] was 0.167 µg/mL and 0.23 µg/mL and 0.155 µg/mL and 0.114 µg/mL and 0.105 µg/mL and 0.361 µg/mL and the Tmax [7] was 2 h and 1.5 h and 3 h. The Cl/F (Table 15: Cohort C, 90 mg QD oral, Day 7, mean ± S.D.) was 149 ± 76 L/h, the AUClast [8] was 1.004 µg·h/mL and 1.255 µg·h/mL and 2.727 µg·h/mL and 1.349 µg·h/mL and 1.58 µg·h/mL and 1.422 µg·h/mL and the Cl/F [8] was 89.6 L/h and 71.7 L/h and 33.0 L/h and 66.7 L/h and 57.0 L/h and 63.3 L/h. For the same compound, the Cmax [8] was 0.234 µg/mL and 0.491 µg/mL and 0.685 µg/mL and 0.435 µg/mL and 0.434 µg/mL and 0.587 µg/mL, the Tmax [8] was 2 h and 1 h (2×) and 1.5 h and the Cl/F (Table 16: Cohort D (AD), 90 mg QD oral, Day 1, mean ± S.D.) was 64 ± 19 L/h. The AUC24 h [9] was 1.067 µg·h/mL and 0.994 µg·h/mL and 0.856 µg·h/mL and 0.608 µg·h/mL and 0.689 µg·h/mL and the Cl/F [9] was 144.6 L/h and 84.4 L/h and 90.5 L/h and 105.2 L/h and 148.0 L/h and 130.6 L/h.
